Data published in the supplement of paper PMC13207355.

Columns and labels:
Details in all cases: exposure time: 72 h
E13 [1] = patient-derived glioblastoma stem cells of classical subtype; assay: surviving fraction (nuclei count normalised to DMSO); higher = more cells surviving (less toxic)
E21 [2] = patient-derived glioblastoma stem cells of mesenchymal subtype; assay: as above
E28 [3] = patient-derived glioblastoma stem cells of classical subtype; assay: as above
E31 [4] = patient-derived glioblastoma stem cells of proneural subtype; assay: as above
E34 [5] = patient-derived glioblastoma stem cells of proneural subtype; assay: as above
E57 [6] = patient-derived glioblastoma stem cells of mesenchymal subtype; assay: as above
FT3469 [7] = normal neural stem cell line; assay: as above
E13 [8] = assay: phenotypic distance (Euclidean, principal components) from DMSO controls (arbitrary units); higher = stronger morphological change
E21 [9] = assay: as above
E28 [10] = assay: as above
E31 [11] = assay: as above
E34 [12] = assay: as above
E57 [13] = assay: as above
FT3469 [14] = assay: as above
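For phenotypic distance (Euclidean, principal components) from DMSO controls in this document: cell Painting imaging in 384-well plates, CellProfiler features reduced to at least 20 principal components, Euclidean distance versus same-plate DMSO vehicle wells (0.1% v/v), median over six images per well.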
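For surviving fraction (nuclei count normalised to DMSO) in this document: nuclei counted by high-content imaging of Hoechst-stained cells in laminin-coated 384-well plates, relative to 0.1% DMSO vehicle wells, with staurosporine as cell-death control.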

C#C[C@]1(O)CC[C@H]2[C@@H]3CCC4=CCCC[C@@H]4[C@H]3CC[C@@]21C [Lynestrenol]
Details	phenotypic distance	surviving fraction
E13 [1], 4.1 nM	–	0.994
E13 [1], 12.3 nM	–	0.901
E13 [1], 37 nM	–	1.03
E13 [1], 111.1 nM	–	1.05
E13 [1], 333.3 nM	–	1.03
E13 [1], 1000 nM	–	1.04
E13 [1], 3000 nM	–	0.88
E13 [8], 4.1 nM	0.399	–
E13 [8], 12.3 nM	0.621	–
E13 [8], 37 nM	0.422	–
E13 [8], 111.1 nM	0.821	–
E13 [8], 333.3 nM	0.697	–
E13 [8], 1000 nM	0.59	–
E13 [8], 3000 nM	1.03	–
E21 [2], 4.1 nM	–	1.03
E21 [2], 12.3 nM	–	0.998
E21 [2], 37 nM	–	1.01
E21 [2], 111.1 nM	–	1.08
E21 [2], 333.3 nM	–	1.07
E21 [2], 1000 nM	–	0.975
E21 [2], 3000 nM	–	1.08
E21 [9], 4.1 nM	0.397	–
E21 [9], 12.3 nM	0.584	–
E21 [9], 37 nM	0.589	–
E21 [9], 111.1 nM	0.676	–
E21 [9], 333.3 nM	0.662	–
E21 [9], 1000 nM	0.692	–
E21 [9], 3000 nM	1.35	–
E28 [3], 4.1 nM	–	1.06
E28 [3], 12.3 nM	–	1.05
E28 [3], 37 nM	–	0.924
E28 [3], 111.1 nM	–	1.04
E28 [3], 333.3 nM	–	1.09
E28 [3], 1000 nM	–	1.16
E28 [3], 3000 nM	–	1.16
E28 [10], 4.1 nM	0.488	–
E28 [10], 12.3 nM	0.735	–
E28 [10], 37 nM	0.493	–
E28 [10], 111.1 nM	0.306	–
E28 [10], 333.3 nM	0.694	–
E28 [10], 1000 nM	0.828	–
E28 [10], 3000 nM	0.566	–
E31 [4], 4.1 nM	–	0.991
E31 [4], 12.3 nM	–	1.12
E31 [4], 37 nM	–	0.813
E31 [4], 111.1 nM	–	1.26
E31 [4], 333.3 nM	–	0.895
E31 [4], 1000 nM	–	1.07
E31 [4], 3000 nM	–	1.09
E31 [11], 4.1 nM	0.539	–
E31 [11], 12.3 nM	0.803	–
E31 [11], 37 nM	0.671	–
E31 [11], 111.1 nM	0.989	–
E31 [11], 333.3 nM	0.806	–
E31 [11], 1000 nM	0.394	–
E31 [11], 3000 nM	1.33	–
E34 [5], 4.1 nM	–	0.966
E34 [5], 12.3 nM	–	0.988
E34 [5], 37 nM	–	0.917
E34 [5], 111.1 nM	–	1.24
E34 [5], 333.3 nM	–	1.03
E34 [5], 1000 nM	–	0.979
E34 [5], 3000 nM	–	0.946
E34 [12], 4.1 nM	0.505	–
E34 [12], 12.3 nM	0.89	–
E34 [12], 37 nM	0.743	–
E34 [12], 111.1 nM	0.994	–
E34 [12], 333.3 nM	0.472	–
E34 [12], 1000 nM	0.846	–
E34 [12], 3000 nM	0.609	–
E57 [6], 4.1 nM	–	1.2
E57 [6], 12.3 nM	–	1.03
E57 [6], 37 nM	–	1.04
E57 [6], 111.1 nM	–	1.06
E57 [6], 333.3 nM	–	1.08
E57 [6], 1000 nM	–	1.17
E57 [6], 3000 nM	–	1.08
E57 [13], 4.1 nM	0.911	–
E57 [13], 12.3 nM	0.621	–
E57 [13], 37 nM	0.561	–
E57 [13], 111.1 nM	0.889	–
E57 [13], 333.3 nM	0.765	–
E57 [13], 1000 nM	0.843	–
E57 [13], 3000 nM	0.439	–
FT3469 [7], 4.1 nM	–	1.1
FT3469 [7], 12.3 nM	–	1.19
FT3469 [7], 37 nM	–	0.984
FT3469 [7], 111.1 nM	–	1.26
FT3469 [7], 333.3 nM	–	1.07
FT3469 [7], 1000 nM	–	1.13
FT3469 [7], 3000 nM	–	1.06
FT3469 [14], 4.1 nM	0.64	–
FT3469 [14], 12.3 nM	1.14	–
FT3469 [14], 37 nM	0.738	–
FT3469 [14], 111.1 nM	1.23	–
FT3469 [14], 333.3 nM	0.567	–
FT3469 [14], 1000 nM	0.796	–
FT3469 [14], 3000 nM	0.874	–
